In patent publication US11339130B1 (Blade Therapeutics, Inc., priority 2016, dated 2022):
Read-outs that look alike come from different tables or passages of the source.

Tests used:
[1] = tested on: Calpain activity in SH-SY5Y cells (SBDP-150); test: SH-SY5Y Spectrin western blot assay (SBDP-150 breakdown product, A23187-induced); assay type: cell-based; conditions: read-out: SH-SY5Y Spectrin IC50
[2] = target: T1, Human Calpain 2/NS1 (Homo sapiens, UniProt P17655); test: Calpain inhibition continuous fluorescence (FRET) assay, Human Calpain 2/NS1; assay type: biochemical; conditions: read-out: Human Calpain 2/NS1 IC50
T1 sequence (P17655 1-700): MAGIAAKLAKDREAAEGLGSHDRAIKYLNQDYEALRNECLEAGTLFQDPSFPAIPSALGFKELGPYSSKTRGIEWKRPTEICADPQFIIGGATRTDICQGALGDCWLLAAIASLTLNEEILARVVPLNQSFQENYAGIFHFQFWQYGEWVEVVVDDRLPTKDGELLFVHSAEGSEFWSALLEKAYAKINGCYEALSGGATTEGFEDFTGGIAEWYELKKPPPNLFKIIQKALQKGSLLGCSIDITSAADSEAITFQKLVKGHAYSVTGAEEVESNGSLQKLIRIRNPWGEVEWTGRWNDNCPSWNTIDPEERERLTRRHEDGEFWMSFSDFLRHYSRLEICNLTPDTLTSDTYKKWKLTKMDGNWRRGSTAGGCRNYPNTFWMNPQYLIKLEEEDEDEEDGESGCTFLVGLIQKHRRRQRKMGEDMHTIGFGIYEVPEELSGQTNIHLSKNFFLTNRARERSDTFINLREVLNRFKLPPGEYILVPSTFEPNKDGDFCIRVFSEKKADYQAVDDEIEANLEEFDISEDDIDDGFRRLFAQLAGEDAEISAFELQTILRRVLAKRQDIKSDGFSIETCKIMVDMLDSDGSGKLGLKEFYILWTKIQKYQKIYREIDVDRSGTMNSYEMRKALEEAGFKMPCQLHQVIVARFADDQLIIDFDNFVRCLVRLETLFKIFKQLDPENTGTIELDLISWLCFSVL
T1 sequence (P04632 1-268 partner): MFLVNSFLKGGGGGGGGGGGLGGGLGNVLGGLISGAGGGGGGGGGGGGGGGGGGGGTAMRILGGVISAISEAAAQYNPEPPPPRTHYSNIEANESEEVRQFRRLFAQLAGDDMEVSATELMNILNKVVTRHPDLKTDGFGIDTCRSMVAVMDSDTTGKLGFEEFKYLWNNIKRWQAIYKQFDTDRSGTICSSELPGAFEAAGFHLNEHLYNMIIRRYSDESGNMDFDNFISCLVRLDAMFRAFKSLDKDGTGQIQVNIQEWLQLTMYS
How it was run: (§1)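 Buffer 50 mM Tris pH 7.5/100 mM NaCl/1 mM DTT; enzyme + cpd preinc 25C; start w/ FRET substrate + CaCl2; kinetic 490/520 nm, 10 min; slopes 1-5 min; 4-PL IC50.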

[3] = target: T2, Human Calpain 9/NS1 (Homo sapiens, UniProt O14815); test: Calpain inhibition continuous fluorescence (FRET) assay, Human Calpain 9/NS1; assay type: biochemical; conditions: read-out: Human Calpain 9/NS1 IC50
T2 sequence (O14815 1-690): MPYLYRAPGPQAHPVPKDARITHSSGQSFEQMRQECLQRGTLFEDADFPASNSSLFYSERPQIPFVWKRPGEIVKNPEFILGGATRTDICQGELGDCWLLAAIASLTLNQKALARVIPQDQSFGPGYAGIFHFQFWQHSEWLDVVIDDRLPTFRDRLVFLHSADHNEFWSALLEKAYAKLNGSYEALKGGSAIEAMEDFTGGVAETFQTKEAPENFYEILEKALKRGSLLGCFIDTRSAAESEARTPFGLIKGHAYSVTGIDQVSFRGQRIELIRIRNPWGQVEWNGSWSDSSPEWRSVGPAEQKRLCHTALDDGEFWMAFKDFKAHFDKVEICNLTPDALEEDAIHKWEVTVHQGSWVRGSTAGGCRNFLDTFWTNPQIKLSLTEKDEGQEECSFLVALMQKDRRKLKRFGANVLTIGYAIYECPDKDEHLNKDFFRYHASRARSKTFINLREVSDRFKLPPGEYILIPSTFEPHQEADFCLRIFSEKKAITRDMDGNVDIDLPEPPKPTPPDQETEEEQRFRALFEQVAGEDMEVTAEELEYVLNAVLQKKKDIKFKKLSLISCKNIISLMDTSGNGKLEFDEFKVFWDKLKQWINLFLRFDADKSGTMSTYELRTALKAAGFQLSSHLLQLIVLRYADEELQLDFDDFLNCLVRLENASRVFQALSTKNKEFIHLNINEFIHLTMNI
T2 sequence (P04632 1-268 partner): T1 sequence (P04632 1-268 partner)
How it was run: as §1

[4] = target: T3, Human Calpain 1/NS1 (Homo sapiens, UniProt P07384); test: Calpain inhibition continuous fluorescence (FRET) assay, Human Calpain 1/NS1; assay type: biochemical; conditions: read-out: Human Calpain 1/NS1 IC50
T3 sequence (P07384 1-714): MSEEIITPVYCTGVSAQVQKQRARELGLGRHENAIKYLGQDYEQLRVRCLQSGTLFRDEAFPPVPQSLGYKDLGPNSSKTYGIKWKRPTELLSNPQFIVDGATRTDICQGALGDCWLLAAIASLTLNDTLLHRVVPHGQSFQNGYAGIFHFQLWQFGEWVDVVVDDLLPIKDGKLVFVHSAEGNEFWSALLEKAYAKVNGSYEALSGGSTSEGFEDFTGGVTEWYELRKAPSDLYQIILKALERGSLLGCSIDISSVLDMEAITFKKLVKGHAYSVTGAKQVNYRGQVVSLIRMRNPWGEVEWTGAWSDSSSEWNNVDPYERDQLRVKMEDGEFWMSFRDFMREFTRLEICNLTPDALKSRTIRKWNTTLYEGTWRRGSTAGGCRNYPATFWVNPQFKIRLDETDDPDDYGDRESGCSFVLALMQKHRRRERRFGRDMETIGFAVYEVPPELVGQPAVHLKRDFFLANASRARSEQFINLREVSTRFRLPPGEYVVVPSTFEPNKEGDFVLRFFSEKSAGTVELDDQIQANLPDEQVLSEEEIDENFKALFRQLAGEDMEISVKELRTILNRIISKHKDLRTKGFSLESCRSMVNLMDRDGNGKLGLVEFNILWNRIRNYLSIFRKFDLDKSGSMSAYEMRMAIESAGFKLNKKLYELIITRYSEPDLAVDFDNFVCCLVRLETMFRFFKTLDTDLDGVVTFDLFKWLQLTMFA
T3 sequence (P04632 1-268 partner): T1 sequence (P04632 1-268 partner)
How it was run: as §1

[5] = tested on: Calpain activity in SH-SY5Y cells; test: SH-SY5Y + AMC fluorescence assay (Suc-LLVY-AMC substrate); assay type: cell-based; conditions: read-out: SH-SY5Y + AMC IC50
[6] = Homo sapiens, SH-SY5Y cells, A23187-induced SBDP-150, western blot
[7] = Column D, SH-SY5Y cells, A23187-induced SBDP-150
[8] = SH-SY5Y cells, A23187-induced SBDP-150, western blot

IC50 [1, 6] | IC50 [2] | IC50 [3] | IC50 [4] | IC50 [5] | IC50 [1, 7] | IC50 ([2]; Column B) | IC50 ([3]; Column C) | IC50 ([4]; Column A) | IC50 ([5]; Column E) | IC50 [1, 8] | Compound | IC50 ([1]; Homo sapiens, SH-SY5Y)
> 25 µM | < 3 µM | 3 to 10 µM | 3 to 10 µM | > 25 µM | – | – | – | – | – | – | Cn1cc(C(=O)NC(Cc2ccccc2)C(=O)C(N)=O)c(N2CCN(C(=O)OCc3ccccc3)CC2)n1 (stereo not shown) [Compound 601, Benzyl 4-(4-((4-amino-3,4-dioxo-1-phenylbutan-2-yl)carbamoyl)-1-methyl-1H-pyrazol-3-yl)piperazine-1-carboxylate] | –
10 to 25 µM | < 3 µM | < 3 µM | < 3 µM | > 25 µM | – | – | – | – | – | – | Cn1cc(C(=O)NC(Cc2ccccc2)C(=O)C(N)=O)c(-c2cc3ccccc3cn2)n1 (stereo not shown) [Compound 602, N-(4-amino-3,4-dioxo-1-phenylbutan-2-yl)-3-(isoquinolin-3-yl)-1-methyl-1H-pyrazole-4-carboxamide] | –
> 25 µM | < 3 µM | < 3 µM | < 3 µM | < 10 µM | – | – | – | – | – | – | Cn1cc(C(=O)NC(Cc2ccccc2)C(=O)C(N)=O)c(-c2ccccc2Cl)n1 (stereo not shown) [Compound 604, N-(4-amino-3,4-dioxo-1-phenylbutan-2-yl)-3-(2-chlorophenyl)-1-methyl-1H-pyrazole-4-carboxamide] | –
> 25 µM | < 3 µM | < 3 µM | < 3 µM | > 25 µM | – | – | – | – | – | – | Cn1cc(C(=O)NC(Cc2ccccc2)C(=O)C(N)=O)c(-c2cnc3ccccc3c2)n1 (stereo not shown) [Compound 605, N-(4-amino-3,4-dioxo-1-phenylbutan-2-yl)-1-methyl-3-(quinolin-3-yl)-1H-pyrazole-4-carboxamide] | –
10 to 25 µM | < 3 µM | < 3 µM | < 3 µM | > 25 µM | – | – | – | – | – | – | Cn1cc(C(=O)NC(Cc2ccccc2)C(=O)C(N)=O)c(-c2cccc3cnccc23)n1 (stereo not shown) [Compound 607, N-(4-amino-3,4-dioxo-1-phenylbutan-2-yl)-3-(isoquinolin-5-yl)-1-methyl-1H-pyrazole-4-carboxamide] | –
10 to 25 µM | < 3 µM | < 3 µM | < 3 µM | > 25 µM | – | – | – | – | – | – | NC(=O)C(=O)C(Cc1ccccc1)NC(=O)C1CCCN1c1ccccc1 (stereo not shown) [compound 541] | –
– | – | – | – | – | < 10 µM | < 3 µM | < 3 µM | < 3 µM | 10 to 25 µM | – | (S)—N-(4-amino-3,4-dioxo-1-phenylbutan-2-yl)-3-methyl-1-(5-methylpyridin-2-yl)-1H-pyrazole-5-carboxamide [Compound 121] | –
– | – | – | – | – | 10 to 25 µM | < 3 µM | < 3 µM | < 3 µM | < 10 µM | – | (S)—N-(4-amino-3,4-dioxo-1-phenylbutan-2-yl)-4-(2-fluorophenyl)-2-methyloxazole-5-carboxamide [Compound 267] | –
– | – | – | – | – | < 10 µM | < 3 µM | < 3 µM | < 3 µM | > 25 µM | – | Methyl (S)-(4-(5-((4-amino-3,4-dioxo-1-phenylbutan-2-yl)carbamoyl)-3-methyl-1H-pyrazol-1-yl)benzyl)carbamate [Compound 161] | –
– | < 3 µM | < 3 µM | < 3 µM | < 10 µM | – | – | – | – | – | < 10 µM | N-(4-amino-3,4-dioxo-1-phenylbutan-2-yl)-1-(2-cyanopyrimidin-4-yl)-3-methyl-1H-pyrazole-5-carboxamide [Compound 448] | –
– | < 3 µM | < 3 µM | < 3 µM | > 25 µM | – | – | – | – | – | < 10 µM | N-(4-amino-3,4-dioxo-1-phenylbutan-2-yl)-1-methyl-3-(5-methylthiophen-2-yl)-1H-pyrazole-4-carboxamide [Compound 505] | –
– | < 3 µM | < 3 µM | < 3 µM | 10 to 25 µM | – | – | – | – | – | 10 to 25 µM | N-(4-amino-3,4-dioxo-1-phenylbutan-2-yl)-3-(5-fluoropyridin-3-yl)-1-methyl-1H-pyrazole-4-carboxamide [Compound 506] | –
– | < 3 µM | < 3 µM | < 3 µM | > 25 µM | – | – | – | – | – | < 10 µM | N-(4-amino-3-hydroxy-4-oxo-1-phenylbutan-2-yl)-4-(4-((benzyloxy)methyl)phenyl)-1,2,5-thiadiazole-3-carboxamide [Compound 369] | –

Compound | IC50 [1, 6] | IC50 [2] | IC50 [3] | IC50 [4] | IC50 [5] | IC50 [1, 7] | IC50 ([2]; Column B) | IC50 ([3]; Column C) | IC50 ([4]; Column A) | IC50 ([5]; Column E) | IC50 [1, 8] | IC50 ([1]; Homo sapiens, SH-SY5Y)
Cn1cc(C(=O)NC(Cc2ccccc2)C(=O)C(N)=O)c(N2CCN(C(=O)OC(C)(C)C)CC2)n1 (stereo not shown) [Compound 603, Tert-Butyl 4-(4-((4-amino-3,4-dioxo-1-phenylbutan-2-yl)carbamoyl)-1-methyl-1H-pyrazol-3-yl)piperazine-1-carboxylate] | – | 3 to 10 µM | 3 to 10 µM | 3 to 10 µM | > 25 µM | – | – | – | – | – | – | > 25 µM
